Test results reported in publication PMC4658182, “The Synthetic Antimicrobial Peptide 19-2.5 Interacts with Heparanase and Heparan Sulfate in Murine and Human Sepsis” (PLoS ONE, 2015).
Like-named read-outs stand apart in the source and are kept apart here.

Tests used:
heparanase [1] = assay: Plasma heparanase level (ELISA), CLP septic mice; type: in vivo, murine; conditions: CLP-mice (NMRI), 24 h after CLP, peptide i.v. infusion 20 μg/ml, 100 μl/h vs NaCl 0.9%, n = 6 per group, Fig 1A, ***p < 0.0001
Description: Heparanase levels in human and murine plasma were measured using a commercial ELISA kit (No.: E03H0100, AMS Biotechnology, Oxon, United Kingdom) according to the manufacturer’s instructions. The ELISA´s detection range is 1.0 ng/ml– 5000 ng/ml.
(§1) The murine model of polymicrobial sepsis was divided into three steps as described before. Briefly, in a first step 12 NMRI mice underwent a catheterization procedure under general (isoflurane 1% to 2% in oxygen/air mix with a FiO2 of 0.3) and local (0.2 ml lidocaine 2%) anesthesia. A central vein catheter (PE-tube, self-made) was implanted in the jugular vein. After further local infiltration with lidocaine, the neck was closed by single suture. To prevent hypothermia all animals were kept on a heating pad throughout the surgical procedure. Mice were transferred back into the cage to rest for 48h. The i.v.-line was connected to the syringe pump at a rate of 100 μl/h (NaCl 0.9%).
In a second step, general and local anesthesia for cecal ligature and puncture (CLP) was performed as described above. The animal were transferred to the cage and reconnected with the i.v.-line. Depending on the group, peptide 19–2.5 infusion (20 μg/ml, 100 μl/h) or NaCl 0.9% infusion (100 μl/h) was started.
Finally, in a third step all animals were killed 24 h after CLP. […]

[2] = Circulating HS-fragments in plasma (ELISA), CLP septic mice; type: in vivo, murine; conditions: CLP-mice (NMRI), 24 h after CLP, peptide i.v. infusion 20 μg/ml, 100 μl/h vs NaCl 0.9%, n = 6 per group, Fig 4, ***p < 0.0001
Description: Levels of circulating HS-fragments in murine plasma were measured using a commercial ELISA kit (No.: E0623Ge, AMS Biotechnology, Oxon, United Kingdom) according to the manufacturer’s instructions. Circulating HS-fragments in plasma were defined by the sum of the HS derived disaccharides obtained after enzymatic cleavage by heparanase. Due to the ELISA´s detection range of 4.69 ng/ml– 300 ng/ml samples were diluted 1:30 in physiological saline (0.9%). The sensitivity of the ELISA is 1.17ng/ml.
as §1
In a second step, general and local anesthesia for cecal ligature and puncture (CLP) was performed as described above. The animal were transferred to the cage and reconnected with the i.v.-line. […]

heparanase [3] = assay: Plasma heparanase activity, human plasma, peptide added ex vivo; type: biochemical; conditions: 20 μg/ml peptide ex vivo, Fig 3B
Description: As described before, we used plasma from 18 adult individuals within 24 hours after presentation with septic shock, according to the ACCP/SCCM definition after written informed consent of patients or their legal representative. Individuals below 18 years were excluded. Furthermore, we used plasma from healthy human donors after written informed consent (n = 10). No personal or identifying information was collected from study participants. All samples are stored in the RWTH centralized Biomaterial Database (RWTH cBMB) of the University Hospital RWTH Aachen. The local ethics committee (University Hospital RWTH Aachen, EK 206_09) approved this study before inclusion of the first individual.
Heparanase activity in human and murine plasma was quantified using the commercial available Heparanase Assay Kit (No.: Ra001-BE-K, AMS Biotechnology, Oxon, United Kingdom) according to the manufacturer’s instructions.

[4] = Isothermal titration calorimetry, binding to HS-fragments; conditions: ITC; for Ka binding constant / Kd / N stoichiometry of binding / ΔG Gibbs free energy / ΔS entropy change: 2 mM peptide titrated 20 times 1.5 μl into 100 μg/ml HS
Description: (§2) Isothermal titration calorimetry (ITC) experiments were performed as previously described. Briefly, the binding of peptide 19–2.5 to heparanase or HS-fragments was recorded by measuring the enthalpy change of the reaction at 37°C. For this, a total of 100 μg/ml heparanase (R&D Systems Europe Ltd., Abingdon, United Kingdom) and 200 μg/ml HS-fragments (H7640 Sigma-Aldrich, St. Louis, MO, USA) were dispersed into the calorimetric cell, and 2 mM peptide 19–2.5 was titrated to this dispersion stepwise in 3 μl portions. After exploring experiments, the concentration of HS was 100 μg/ml titrated with 1.5 μl of peptide 19–2.5 (2 mM) 20 times at 37°C.
(§3) Fig 5 Isothermal titration calorimetry (ITC). For the ITC experiments, 2 mM peptide 19–2.5 was titrated to this dispersion stepwise in 3 μl portions into (A) 200 μg/ml heparan sulfate-fragments (HS) and (B) 100 μg/ml heparanase (Hep). In each titration, the resulting heat signals P were recorded (peak downwards are exothermic, peaks upwards endothermic reactions) against time (min) and presented in the top parts of Fig 5A and 5B. The integrated enthalpy changes ΔH versus [peptide]:[HS-fragments] (A) and [peptide]:[heparanase] (B) concentration ratios of the single titrations are illustrated in the bottom parts of Fig 5A and 5B.

heparanase [5] = assay: Isothermal titration calorimetry, binding to heparanase; conditions: ITC, 37°C
Description: as §2, §3

[6] = test system: Gram-negative and Gram-positive bacteria as well as against viruses; conditions: cited from earlier work
Text: (§4) The synthetic antimicrobial peptide 19–2.5 belongs to the class of synthetic anti-lipopolysaccharide peptides (SALP = synthetic anti-LPS peptides). […] We recently reported that peptide 19–2.5 is able to decrease the inflammatory response in murine cells stimulated with both PAM ...

mice = conditions: cited from earlier work
Text: as §4

[7] = 37°C, 2 mM peptide in 3 μl portions into 200 μg/ml HS-fragments, Fig 5A
[8] = 2 mM peptide in 3 μl portions into 100 μg/ml heparanase, Fig 5B
[9] = heparanase (Fig 5B) compared with HS-fragments (Fig 5A)

Substance: peptide 19–2.5: synthetic antimicrobial peptide 19–2.5 belongs to the class of synthetic anti-lipopolysaccharide peptides (SALP = synthetic anti-LPS peptides)
- plasma heparanase level, untreated CLP-mice vs peptide-treated (heparanase [1]): significantly higher levels of plasma heparanase compared to mice treated with peptide 19–2.5
- levels of circulating HS-fragments in plasma vs untreated control [2]: significantly decreased in CLP-mice treated with peptide 19–2.5 compared to untreated control animals
- plasma heparanase activity after ex vivo addition of peptide (heparanase [3]; plasma of healthy humans (n = 10), n.s.): did not alter heparanase activity
- plasma heparanase activity after ex vivo addition of peptide (heparanase [3]; plasma of septic shock patients (n = 18)): significantly lowered heparanase activity
- [Peptide 19–2.5]:[HS] weight ratio at saturation [4, 7]: ~0.6
- heat of reaction on titration to HS-fragments [4, 7]: high exothermic reaction
- Ka binding constant ([4]; 37°C, experiment 1): 1.93e+06 M⁻¹
- Kd ([4]; 37°C, experiment 1): 0.518 µM
- N stoichiometry of binding ([4]; 37°C, experiment 1): 0.511 w/w ratio
- ΔG Gibbs free energy ([4]; 37°C, experiment 1): -8.918 kcal/mol
- ΔS entropy change ([4]; 37°C, experiment 1): 4.46 cal/mol/K
- Ka binding constant ([4]; 37°C, experiment 2): 1.52e+07 M⁻¹
- Kd ([4]; 37°C, experiment 2): 0.0657 µM
- N stoichiometry of binding ([4]; 37°C, experiment 2): 0.475 w/w ratio
- ΔG Gibbs free energy ([4]; 37°C, experiment 2): -10.192 kcal/mol
- ΔS entropy change ([4]; 37°C, experiment 2): 6.42 cal/mol/K
- Ka binding constant ([4]; 37°C, experiment 3): 1.55e+07 M⁻¹
- Kd ([4]; 37°C, experiment 3): 0.0645 µM
- N stoichiometry of binding ([4]; 37°C, experiment 3): 0.547 w/w ratio
- ΔG Gibbs free energy ([4]; 37°C, experiment 3): -10.201 kcal/mol
- ΔS entropy change ([4]; 37°C, experiment 3): 10.8 cal/mol/K
- Ka binding constant ([4]; 37°C, experiment 4): 1.2e+07 M⁻¹
- Kd ([4]; 37°C, experiment 4): 0.0833 µM
- N stoichiometry of binding ([4]; 37°C, experiment 4): 0.534 w/w ratio
- ΔG Gibbs free energy ([4]; 37°C, experiment 4): -10.046 kcal/mol
- ΔS entropy change ([4]; 37°C, experiment 4): 6.77 cal/mol/K
- Ka binding constant ([4]; 37°C, mean of n = 4): 1.12e+07 M⁻¹
- N stoichiometry of binding ([4]; 37°C, mean of n = 4): 0.520 w/w ratio
- ΔG Gibbs free energy ([4]; 37°C, mean of n = 4): -9.839 kcal/mol
- ΔS entropy change ([4]; 37°C, mean of n = 4): 7.11 cal/mol/K
- Kd ([4]; 37°C, mean of n = 4, read-out: Kd): 0.0892 µM
- titration curve shape with HS-fragments ([4]; Fig 5A): S-shaped curve with saturation characteristic for a complex formation
- enthalpy change (ΔH) at the beginning of the titration (heparanase [5]; [8]): approximately −25 kJ/mol
- heat of reaction on titration to heparanase (heparanase [5]; [8]): exothermic reaction
- ΔH value at high peptide concentrations (heparanase [5]; [8]): around 12 kJ/mole
- binding constant for heparanase (heparanase [5]; 2 mM peptide into 100 μg/ml heparanase, Fig 5B): does not allow calculating a binding constant
- saturation character of ΔH values (heparanase [5]; 2 mM peptide into 100 μg/ml heparanase, no sigmoidal curve, Fig 5B): do not have a saturation character
- peptide concentrations at which the processes take place vs HS-fragments (heparanase [5]; [9]): orders of magnitude higher than those for the interaction with HS-fragments
- ΔH values at the beginning of the titration vs HS-fragments (heparanase [5]; [9]): much lower than those for the HS-fragments titration
- anti-inflammatory activity [6]: shows anti-inflammatory activity against Gram-negative and Gram-positive bacteria as well as against viruses
- protection from lethal septic shock (mice): protects mice from lethal septic shock
